Reference: ChEMBL document CHEMBL1138438, “Structural-activity relationship study of highly-functionalized imidazolines as potent inhibitors of nuclear transcription factor-kappaB mediated IL-6 production” (Bioorg Med Chem, 2009)
Calls of active or inactive are those of the source. No cut-off for these calls is given here.

Key:
[1] = Inhibition of NF-kappaB-mediated gene transcription expressed in TNF-alpha-stimulated human HeLa cells for 30 mins before TNFalpha challenge measured after 8 hrs by steady-glo luciferase reporter gene assay; format: cell-based
[2] = tested on: Blood; experiment: Antiinflammatory activity in human whole blood assessed as inhibition of IL-1-beta-stimulated IL6 production preincubated 2 hrs before IL1-beta challenge measured after 18 hrs by ELISA; format: functional, tissue-based
[3] = tested on: HeLa; experiment: Stimulation of NF-kappaB-mediated gene transcription expressed in human HeLa cells for 30 mins before TNFalpha challenge measured after 8 hrs by steady-glo luciferase reporter gene assay; format: cell-based
[4] = Cytotoxicity against human 184B5 cells after 24 hrs by MTS assay; format: cell-based

SMILES | EC50 [1] [µM] | IC50 ([2]; read-out: IC50) [µM] | IC50 ([2]; read-out: Log IC50 (converted)) [µM] | Activity [2] | Activity [3] | CC50 at 24 h [4] [µM]
CCOC(=O)[C@]1(c2ccccc2)N=C(c2ccccc2)N[C@@H]1c1ccccc1 (racemic) | 116 | > 20 | 34.7 | Dose-dependent effect | inactive | > 10
CCOC(=O)[C@]1(c2ccccc2)N=C(c2ccccc2)N(C(C)=O)[C@@H]1c1ccccc1 (racemic) | 168 | > 20 |  | Dose-dependent effect | inactive | > 10
COC(=O)[C@]1(c2ccccc2)N=C(c2ccccc2)N(Cc2ccccc2)[C@@H]1c1ccccc1 (racemic) | 7.5 | 3 | 3.02 | Dose-dependent effect | inactive | > 10
NC(=O)[C@]1(c2ccccc2)N=C(c2ccccc2)N(Cc2ccccc2)[C@@H]1c1ccccc1 (racemic) | > 20 | > 20 | 46.8 | Dose-dependent effect | inactive | > 10
CCOC(=O)[C@]1(c2ccccc2)N=C(c2ccccc2)N(C(=O)c2ccccc2)[C@@H]1c1ccccc1 (racemic) | 24.9 | 6.6 | 6.61 | Dose-dependent effect | inactive | > 10
CCOC(=O)[C@]1(c2ccccc2)N=C(c2ccccc2)N(Cc2ccco2)[C@@H]1c1ccccc1 (racemic) | 5.5 | 1.3 | 1.29 | Dose-dependent effect | inactive | > 10
CCOC(=O)[C@]1(c2ccccc2)N=C(c2ccccc2)N(Cc2ccccc2)[C@@H]1c1ccncc1 (racemic) | > 20 | 9.4 | 9.33 | Dose-dependent effect | inactive | > 10
COC(=O)[C@]1(Cc2cc3ccccc3[nH]2)N=C(c2ccccc2)N(Cc2ccccc2)[C@@H]1c1ccccc1 (racemic) | 13 | 16.1 | 16.2 | Dose-dependent effect | inactive | > 10
CCOC(=O)[C@]1(c2ccccc2)N=C(c2ccccc2)N(S(=O)(=O)c2ccc(C)cc2)[C@@H]1c1ccccc1 (racemic) | 36.1 | 6.6 | 6.61 | Dose-dependent effect | inactive | > 10
COC(=O)[C@]1(C(C)C)N=C(c2ccccc2)N(Cc2ccccc2)[C@@H]1c1ccccc1 (racemic) | 20 | 7.1 | 7.08 | Dose-dependent effect | inactive | > 10
COC(=O)[C@]1(C)N=C(c2ccccc2)N(Cc2ccccc2)[C@@H]1c1ccccc1 (racemic) | > 20 | 3 | 2.95 | Dose-dependent effect | inactive | > 10
COC(=O)[C@]1(Cc2ccccc2)N=C(c2ccccc2)N(Cc2ccccc2)[C@@H]1c1ccccc1 (racemic) | 5.3 | 4.1 | 4.07 | Dose-dependent effect | inactive | > 10
CCOC(=O)[C@]1(c2ccccc2)N=C(c2ccccc2)N(Cc2ccccc2)[C@@H]1c1ccco1 (racemic) | 7.6 | 1.9 | 1.91 | Dose-dependent effect | inactive | > 10
CCOC(=O)[C@]1(c2ccccc2)N=C(c2ccccc2)N(Cc2ccc(C(F)(F)F)cc2)[C@@H]1c1ccccc1 (racemic) | 6.7 | 1.5 | 1.48 | Dose-dependent effect | inactive | > 10
CCOC(=O)[C@]1(c2ccccc2)N=C(c2ccccc2)N(Cc2ccccc2)[C@@H]1c1ccc(N)cc1 (racemic) | 10.4 | 0.5 | 0.457 | Dose-dependent effect | inactive | > 10

The next lines start with results.

EC50 [1] [µM] | IC50 ([2]; read-out: IC50) [µM] | IC50 ([2]; read-out: Log IC50 (converted)) [µM] | SMILES | Activity [2] | Activity [3] | CC50 at 24 h [4] [µM]
3.5 | 5.9 | 5.89 | O=C(OCc1ccccc1)[C@]1(c2ccccc2)N=C(c2ccccc2)N(Cc2ccccc2)[C@@H]1c1ccccc1 (racemic) | Dose-dependent effect | inactive | > 10
4.2 | 1.6 | 1.58 | CCOC(=O)[C@]1(c2ccccc2)N=C(c2ccccc2)N(Cc2ccc(Cl)cc2)[C@@H]1c1ccccc1 (racemic) | Dose-dependent effect | inactive | > 10
3.4 | 0.5 | 0.537 | CCOC(=O)[C@]1(c2ccccc2)N=C(c2ccccc2)N(Cc2ccccc2)[C@@H]1c1ccc([N+](=O)[O-])cc1 (racemic) | Dose-dependent effect | inactive | > 10
1.5 | 0.3 | 0.0617 | CCOC(=O)[C@]1(c2ccccc2)N=C(c2ccccc2)N(Cc2ccccc2)[C@@H]1c1ccc(Cl)cc1 (racemic) | Dose-dependent effect | inactive | > 10
5 | 1.4 | 1.38 | CCOC(=O)[C@]1(c2ccccc2)N=C(c2ccccc2)N(Cc2ccc(OC)cc2)[C@@H]1c1ccccc1 (racemic) | Dose-dependent effect | inactive | > 10
1.4 | 0.8 | 0.851 | CCOC(=O)[C@]1(c2ccccc2)N=C(c2ccccc2)N(Cc2ccccc2)[C@@H]1c1ccc(C(F)(F)F)cc1 (racemic) | Dose-dependent effect | inactive | > 10
5.2 | 1.2 | 1.2 | CCOC(=O)[C@]1(c2ccccc2)N=C(c2ccccc2)N(Cc2ccc(F)cc2)[C@@H]1c1ccccc1 (racemic) | Dose-dependent effect | inactive | > 10
2.3 | 1.9 | 1.95 | CCCOC(=O)[C@]1(c2ccccc2)N=C(c2ccccc2)N(Cc2ccccc2)[C@@H]1c1ccccc1 (racemic) | Dose-dependent effect | inactive | > 10
2.7 | 0.5 | 2 | CCOC(=O)[C@]1(c2ccccc2)N=C(c2ccccc2)N(Cc2ccc(Br)cc2)[C@@H]1c1ccccc1 (racemic) | Dose-dependent effect | inactive | > 10
3.5 | 1.9 | 1.95 | CC(C)OC(=O)[C@]1(c2ccccc2)N=C(c2ccccc2)N(Cc2ccccc2)[C@@H]1c1ccccc1 (racemic) | Dose-dependent effect | inactive | > 10
1.7 | 4.6 | 4.57 | CCOC(=O)[C@]1(c2ccccc2)N=C(c2ccccc2)N(Cc2ccc(C)cc2)[C@@H]1c1ccccc1 (racemic) | Dose-dependent effect | inactive | > 10
5 | 1 | 1.05 | CCOC(=O)[C@]1(c2ccccc2)N=C(c2ccccc2)N(Cc2ccccc2)[C@@H]1c1ccc(F)cc1 (racemic) | Dose-dependent effect | inactive | > 10
3.6 | 1.3 | 1.29 | CCOC(=O)[C@]1(c2ccccc2)N=C(c2ccccc2)N(Cc2ccccc2)[C@@H]1c1ccc(OC)cc1 (racemic) | Dose-dependent effect | inactive | > 10
